Assay results: ChEMBL document CHEMBL4052813, “Achyrodimer F, a tyrosyl-DNA phosphodiesterase I inhibitor from an Australian fungus of the family Cortinariaceae” (Bioorg Med Chem Lett, 2017)

What was measured:
[1] = molecular target: T1, Tyrosyl-DNA phosphodiesterase 1 (Homo sapiens, UniProt Q9NUW8); assay: Inhibition of Tdp1 (unknown origin) up to 40 uM using 5'-(6-TAMN-AGGATCTAAAAGACTT-BHQ-)3' as substrate pretreated for 30 mins followed by substrate addition by fluorescence assay
[2] = molecular target: T1, Tyrosyl-DNA phosphodiesterase 1; assay: Inhibition of Tdp1 (unknown origin) using 5'-(6-TAMN-AGGATCTAAAAGACTT-BHQ-)3' as substrate pretreated for 30 mins followed by substrate addition by fluorescence assay

T1 sequence (Q9NUW8 whole entry): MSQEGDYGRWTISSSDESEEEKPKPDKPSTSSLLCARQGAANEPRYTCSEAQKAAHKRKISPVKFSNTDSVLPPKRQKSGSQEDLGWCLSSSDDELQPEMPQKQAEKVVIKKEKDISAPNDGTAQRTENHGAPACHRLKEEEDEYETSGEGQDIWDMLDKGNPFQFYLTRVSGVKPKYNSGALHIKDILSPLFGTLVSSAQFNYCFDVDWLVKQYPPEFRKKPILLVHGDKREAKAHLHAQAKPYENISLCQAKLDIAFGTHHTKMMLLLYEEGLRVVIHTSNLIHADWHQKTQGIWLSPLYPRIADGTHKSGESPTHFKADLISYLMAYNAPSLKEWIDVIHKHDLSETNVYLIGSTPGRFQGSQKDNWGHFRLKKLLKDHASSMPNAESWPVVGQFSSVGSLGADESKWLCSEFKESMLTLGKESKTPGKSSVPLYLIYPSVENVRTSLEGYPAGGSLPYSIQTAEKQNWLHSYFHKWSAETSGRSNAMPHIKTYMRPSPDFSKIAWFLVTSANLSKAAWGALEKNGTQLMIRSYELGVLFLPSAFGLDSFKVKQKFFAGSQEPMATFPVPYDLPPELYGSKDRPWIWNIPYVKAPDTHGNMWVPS

SMILES	inhibition [1]	IC50 [2]
O=c1cc(O)cc(/C=C/c2ccc(O)cc2)o1	Dose-dependent effect	
O=c1cc(O)cc([C@H]2[C@H](c3ccc(O)cc3)[C@H](c3cc(O)cc(=O)o3)[C@H]2c2ccc(O)cc2)o1		1 µM
O=c1cc(O)cc(/C=C/c2ccc(O)c(O)c2)o1	Dose-dependent effect	
